Measured values from patent US10457689B2, “Ammonium derivatives, a process for their preparation and pharmaceutical compositions containing them” (LES LABORATOIRES SERVIER, priority 2016, dated 2019).
Values after ≈ are worked out from the molar mass of the structure shown.

How the values were obtained:
Solubility test Method 1 = assay type: physicochemical; conditions: Method 1: 30% propylene glycol in water, shaked 72 hours at room temperature
Method: Sample solutions (around 16.7 mg/ml) in propylene glycol were diluted with water (30% propylene glycol). Then, samples were shaked for 72 hours at room temperature. After shaking period, samples were centrifuged, then the liquid phase was filtered and analyzed using HPLC coupled to UV detection. To determine the actual concentration a 5-point calibration curve was established.

Mcl-1 protein = Mcl-1 protein (Homo sapiens, UniProt Q07820); experiment: Inhibition of Mcl-1 by the fluorescence polarisation technique; assay type: binding; conditions: fluorescence polarisation test; read-out: IC50 (M) Mcl-LFP
Chain of Mcl-1 protein (Q07820 whole entry): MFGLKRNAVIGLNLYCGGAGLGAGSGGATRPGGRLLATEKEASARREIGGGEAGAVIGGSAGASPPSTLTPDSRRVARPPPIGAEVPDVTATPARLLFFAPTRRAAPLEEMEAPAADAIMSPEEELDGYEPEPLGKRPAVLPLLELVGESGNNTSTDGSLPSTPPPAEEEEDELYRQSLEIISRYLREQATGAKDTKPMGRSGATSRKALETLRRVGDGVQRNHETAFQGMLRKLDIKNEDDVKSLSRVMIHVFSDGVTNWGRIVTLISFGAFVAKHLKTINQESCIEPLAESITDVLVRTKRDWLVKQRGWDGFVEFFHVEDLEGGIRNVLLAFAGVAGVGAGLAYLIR
Method: The relative, binding potency of each compound was determined via Fluorescence Polarisation (FP). The method utilised a Fluorescein labelled ligand (Fluorescein-βAla-Ahx-A-REIGAQLRRMADDLNAQY-OH; mw 2,765) which binds to the Mcl-1 protein (such that Mcl-1 corresponds to the UniProtKB® primary accession number: Q07820) leading to an increased anisotropy measured in milli-polarisation (mP) units using a reader. The addition of a compound which binds competitively to the same site as the ligand will result in a greater proportion of unbound ligand in the system indicated by a decrease in mP units.
An 11 point serial dilution of each compound was prepared in DMSO and 2 μl transferred into flat bottomed, low binding, 384-well plate (final DMSO concentration 5%), 38 μl of buffer (10 mM 4-(2-hydroxyethyl)-1-piperazineethanesolfonic acid [HEPES], 150 mM NaCl, 0.05% Tween 20, pH 7.4), containing the Fluorescein labelled ligand (final concentration 1 nM) and Mcl-1 protein (final concentration 5 nM) was then added.
Assay plates were incubated ˜2 hours at room temperature before FP was measured on a […] Synergy2 reader (Ex. 528 nm, Em. 640 nm, Cut off 510 nm) and mP units calculated. The binding of increasing doses of test compound was expressed as a percentage reduction in mP compared to a window established between ‘5% DMSO only’ and ‘100% inhibition’ controls. 11-point dose response curves were plotted with XL-Fit software using a 4-Parameter Logistic Model (Sigmoidal Dose-Response Model) and the inhibitory concentrations that gave a 50% reduction in mP (IC50) were determined.

[1] = tested on: H929 multiple myeloma tumour line; experiment: In vitro cytotoxicity (MTT); assay type: cell-based; conditions: 48 hours exposure
Method: The cytotoxicity studies were carried out on the H929 multiple myeloma tumour line.
The cells are distributed onto microplates and exposed to the test compound for 48 hours.
The cell viability is then quantified by a colorimetric assay, the Microculture Tetrazolium Assay (Carmichael et al. Cancer Res. 1987, 47, 936-942).

Solubility test Method 2 = assay type: physicochemical; conditions: Method 2: aqueous phosphate buffer 67.7 mM, pH 7.4, room temperature
Method: Samples (40 mg/mL) were diluted in aqueous phosphate buffer (67.7 mM, with pH adjusted at 7.4) used for in vivo studies. Samples were shaked at room temperature, then filtered. The solubilized fraction was quantified by LC-MS-MS analysis.

[2] = Homo sapiens, NCI-H929, H929 cells

| Structure (SMILES) | solubility (Solubility test Method 1) [µM] | IC50 (Mcl-1 protein) [M] | IC50 ([1]; H929 cells) [nM] | solubility (Solubility test Method 2) [mg/mL] | IC50 [1, 2] [nM] |
| --- | --- | --- | --- | --- | --- |
| COc1ccccc1-c1nccc(COc2ccccc2C[C@@H](Oc2ncnc3sc(-c4ccc(F)cc4)c(-c4ccc(OCCN5CC[N+](C)(COP(=O)([O-])O)CC5)c(Cl)c4C)c23)C(=O)O)n1 [Example 1, {4-[2-(4-{(5Sa)-4-[(1R)-1-carboxy-2-(2-{[2-(2-methoxyphenyl)pyrimidin-4-yl]methoxy}phenyl)ethoxy]-6-(4-fluorophenyl)thieno[2,3-d]pyrimidin-5-yl}-2-chloro-3-methylphenoxy)ethyl]-1-methylpiperazin-1-ium-1-yl}methyl hydrogen phosphate] | ≥ 4907 | 1.03e-09 | 28.4 |  |  |
| COc1ccccc1-c1nccc(COc2ccccc2C[C@@H](Oc2ncnc3sc(-c4ccc(F)cc4)c(-c4ccc(OCCN5CCN(C)CC5)c(Cl)c4C)c23)C(=O)O)n1 [(2R)-2-{[(5Sa)-5-{3-chloro-2-methyl-4-[2-(4-methylpiperazin-1-yl)ethoxy]phenyl}-6-(4-fluorophenyl)thieno[2,3-d]pyrimidin-4-yl]oxy}-3-(2-{[2-(2-methoxyphenyl)pyrimidin-4-yl]methoxy}phenyl)propanoic acid, reference compound] | 63.3 (≈ 55.4 µg/mL) |  |  |  |  |
| COc1ccccc1-c1nccc(COc2ccccc2CC(Oc2ncnc3sc(-c4ccc(F)cc4)c(-c4ccc(OCC[N+](C)(C)COP(=O)([O-])O)c(Cl)c4C)c23)C(=O)O)n1 [Example 11, {4-[2-(4-{(5Sa)-4-[(1R)-1-carboxy-2-(2-{[2-(2-methoxyphenyl)pyrimidin-4-yl]methoxy}phenyl)ethoxy]-6-(4-fluorophenyl)thieno[2,3-d]pyrimidin-5-yl}-2-chloro-3-methylphenoxy)ethyl](dimethyl)ammonio}methyl hydrogen phosphate] |  | 1.06e-09 |  | > 35 | 39.3 |
| COc1ccccc1-c1nccc(COc2ccccc2CC(Oc2ncnc3sc(-c4ccc(F)cc4)c(-c4ccc(OCCN5CC[N+](C)(COP(=O)([O-])OCc6ccccc6)CC5)c(Cl)c4C)c23)C(=O)O)n1 [Example 2, benzyl {4-[2-(4-{(5Sa)-4-[(1R)-1-carboxy-2-(2-{[2-(2-methoxyphenyl)pyrimidin-4-yl]methoxy}phenyl)ethoxy]-6-(4-fluorophenyl)thieno[2,3-d]pyrimidin-5-yl}-2-chloro-3-methylphenoxy)ethyl]-1-methylpiperazin-1-ium-1-yl}methyl phosphate] |  | 9.48e-10 |  |  | 10.9 |
